Where a SMILES comes first, the peptide text is derived from it.

The first data set is described as follows: Motilin immunoreactivity concentration in plasma, half-life after intravenous administration (Example 8). The conditions noted are these: SD, rat, in vivo; intravenous, 10 nmol/kg, male rats, N = 3; read-out: T½ Mean Value. The procedure:
The experiment was carried out using rats into which polyethylene tube (PE-50 manufactured by Clay Adams) was inserted into thigh artery under an anesthetized condition with Nembutal. As to a test system, male SD strain rats (Nippon Charles River) of 7 weeks age were used where one group comprised 3 rats. Human motilin or a derivative thereof in a dose of 10 nmol/kg was administered into tail vein of the rat and the blood before the administration and until 60 minutes after the administration was periodically collected by a polyethylene tube inserted into the thigh artery. To the collected blood were added EDTA (manufactured by Dojin Laboratories) and aprotinin (manufactured by Bayer) as a stabilizer and an anti-coagulant, respectively and the plasma was separated therefrom by centrifugal separation. Motilin immunoreactivity concentration in plasma was measured by a competitive radioimmunoassay (RIA) (FIG. 8). At that time, a rabbit polyclonal antibody (#870623) which specifically recognizes the amino acid numbers 1 to 12 of native motilin shown by SEQ ID No: 102 was used as an antibody and, as a labeled compound, ^125I-[Tyr^7] human motilin was used.
Regarding `CC[C@H](C)[C@H](NC(=O)[C@@H]1CCCN1C(=O)[C@@H](NC(=O)[C@@H](N)Cc1ccccc1)C(C)C)C(=O)N[C@@H](Cc1ccccc1)C(=O)N[C@H](C(=O)N[C@@H](Cc1ccc(O)cc1)C(=O)NCC(=O)N[C@@H](CCC(=O)O)C(=O)N[C@@H](CC(C)C)C(=O)N[C@@H](CCC(N)=O)C(=O)N[C@@H](CCCNC(=N)N)C(=O)N[C@H](C(=O)N[C@@H](CCC(N)=O)C(=O)N[C@@H](CCC(N)=O)C(=O)N[C@@H](CCCCN)C(=O)N[C@@H](CCCNC(=N)N)C(=O)N[C@@H](CC(=O)O)C(=O)N[C@@H](CO)C(=O)N[C@@H](CCCNC(=N)N)C(=O)N[C@@H](CCCNC(=N)N)C(=O)N1CCC[C@H]1C(=O)N1CCC[C@H]1C(=O)N[C@@H](C)C(=O)N[C@@H](CCCCN)C(=O)N[C@@H](CC(C)C)C(=O)N[C@@H](CCC(N)=O)C(=O)N1CCC[C@H]1C(=O)N[C@@H](CCCNC(=N)N)C(=O)O)C(C)C)[C@@H](C)O` [Chimeric motilin (X)(MG-17E/D)] (H-FVPIFTYGELQRVQQKRDSRRPPAKLQPR-OH), the half-life is 7.89 min.

The data set is the same for the next values; noted with them: male, SD, rat, in vivo, iv, 10 nmol/kg.
Compound `CC[C@H](C)[C@H](NC(=O)[C@@H]1CCCN1C(=O)[C@@H](NC(=O)[C@@H](N)Cc1ccccc1)C(C)C)C(=O)N[C@@H](Cc1ccccc1)C(=O)N[C@H](C(=O)N[C@@H](Cc1ccc(O)cc1)C(=O)NCC(=O)N[C@@H](CCC(=O)O)C(=O)N[C@@H](CC(C)C)C(=O)N[C@@H](CCC(N)=O)C(=O)N[C@@H](CCCNC(=N)N)C(=O)N[C@H](C(=O)N[C@@H](CCC(N)=O)C(=O)N[C@@H](CCC(N)=O)C(=O)N[C@@H](CCCNC(=N)N)C(=O)N[C@@H](CCCCN)C(=O)N[C@@H](CCC(=O)O)C(=O)N[C@@H](CO)C(=O)N[C@@H](CCCCN)C(=O)N[C@@H](CCCCN)C(=O)N1CCC[C@H]1C(=O)N1CCC[C@H]1C(=O)N[C@@H](C)C(=O)N[C@@H](CCCCN)C(=O)N[C@@H](CC(C)C)C(=O)N[C@@H](C)C(=O)N[C@@H](C)C(=O)N[C@@H](CC(C)C)C(=O)N[C@@H](CCCCN)C(=O)N[C@@H](C)C(=O)O)C(C)C)[C@@H](C)O` [Chimeric motilin (VI)(MG-H1)] (H-FVPIFTYGELQRVQQRKESKKPPAKLAALKA-OH; N-terminus and C-terminus assumed) had a half-life of 9.94 min. As for `CC[C@H](C)[C@H](NC(=O)[C@@H]1CCCN1C(=O)[C@@H](NC(=O)[C@@H](N)Cc1ccccc1)C(C)C)C(=O)N[C@@H](Cc1ccccc1)C(=O)N[C@H](C(=O)N[C@@H](Cc1ccc(O)cc1)C(=O)NCC(=O)N[C@@H](CCC(=O)O)C(=O)N[C@@H](CC(C)C)C(=O)N[C@@H](CCC(N)=O)C(=O)N[C@@H](CCCNC(=N)N)C(=O)N[C@H](C(=O)N[C@@H](CCC(N)=O)C(=O)N[C@@H](CCC(N)=O)C(=O)N[C@@H](CCCNC(=N)N)C(=O)N[C@@H](CCCCN)C(=O)N[C@@H](CCC(=O)O)C(=O)N[C@@H](CO)C(=O)N[C@@H](CCCCN)C(=O)N[C@@H](CCCCN)C(=O)N1CCC[C@H]1C(=O)N1CCC[C@H]1C(=O)N[C@@H](C)C(=O)N[C@@H](CCC(=O)O)C(=O)N[C@@H](CC(C)C)C(=O)N[C@@H](C)C(=O)N[C@@H](C)C(=O)N[C@@H](CC(C)C)C(=O)N[C@@H](CCC(=O)O)C(=O)N[C@@H](C)C(=O)O)C(C)C)[C@@H](C)O` [Chimeric motilin (VII)(MG-H3)] (H-FVPIFTYGELQRVQQRKESKKPPAELAALEA-OH; N-terminus and C-terminus assumed), the half-life came to 12.8 min. Take `CC[C@H](C)[C@H](NC(=O)[C@@H]1CCCN1C(=O)[C@@H](NC(=O)[C@@H](N)Cc1ccccc1)C(C)C)C(=O)N[C@@H](Cc1ccccc1)C(=O)N[C@H](C(=O)N[C@@H](Cc1ccc(O)cc1)C(=O)NCC(=O)N[C@@H](CCC(=O)O)C(=O)N[C@@H](CC(C)C)C(=O)N[C@@H](CCC(N)=O)C(=O)N[C@@H](CCCNC(=N)N)C(=O)N[C@H](C(=O)N[C@@H](CCC(N)=O)C(=O)N[C@@H](CCC(N)=O)C(=O)N[C@@H](CCCNC(=N)N)C(=O)N[C@@H](CCCCN)C(=O)N[C@@H](CCC(=O)O)C(=O)N[C@@H](CO)C(=O)N[C@@H](CCCCN)C(=O)N[C@@H](CCCCN)C(=O)N1CCC[C@H]1C(=O)N1CCC[C@H]1C(=O)N[C@@H](C)C(=O)N[C@@H](CCC(=O)O)C(=O)N[C@@H](CC(C)C)C(=O)N[C@@H](C)C(=O)N[C@@H](C)C(=O)N[C@@H](CC(C)C)C(=O)N[C@@H](CCCCN)C(=O)N[C@@H](C)C(=O)O)C(C)C)[C@@H](C)O` [Chimeric motilin (VIII)(MG-H4)] (H-FVPIFTYGELQRVQQRKESKKPPAELAALKA-OH; N-terminus and C-terminus assumed): the half-life was determined as 11.6 min. The same measure, in the same setting: the result for `CC[C@H](C)[C@H](NC(=O)[C@@H]1CCCN1C(=O)[C@@H](NC(=O)[C@@H](N)Cc1ccccc1)C(C)C)C(=O)N[C@@H](Cc1ccccc1)C(=O)N[C@H](C(=O)N[C@@H](Cc1ccc(O)cc1)C(=O)NCC(=O)N[C@@H](CCC(=O)O)C(=O)N[C@@H](CC(C)C)C(=O)N[C@@H](CCC(N)=O)C(=O)N[C@@H](CCCNC(=N)N)C(=O)N[C@H](C(=O)N[C@@H](CCC(N)=O)C(=O)N[C@@H](CCC(N)=O)C(=O)N[C@@H](CCCNC(=N)N)C(=O)N[C@@H](CCCCN)C(=O)N[C@@H](CCCCN)C(=O)N[C@@H](CCCCN)C(=O)N1CCC[C@H]1C(=O)N1CCC[C@H]1C(=O)N[C@@H](C)C(=O)N[C@@H](CCCCN)C(=O)N[C@@H](CC(C)C)C(=O)N[C@@H](CCC(N)=O)C(=O)N1CCC[C@H]1C(=O)N[C@@H](CCCNC(=N)N)C(=O)O)C(C)C)[C@@H](C)O` [Chimeric motilin (W)(MG-dES)] (H-FVPIFTYGELQRVQQRKKKPPAKLQPR-OH; N-terminus and C-terminus assumed) reads 5.39 min; that for `CC[C@H](C)[C@H](NC(=O)[C@H](CCSC)NC(=O)[C@@H]1CCCN1C(=O)[C@@H]1CCCN1C(=O)[C@H](CCCCN)NC(=O)[C@H](CCCCN)NC(=O)[C@H](CO)NC(=O)[C@H](CCC(=O)O)NC(=O)[C@H](CCCCN)NC(=O)[C@H](CCCNC(=N)N)NC(=O)[C@H](CCC(N)=O)NC(=O)[C@H](CCC(N)=O)NC(=O)[C@@H](NC(=O)[C@H](CCCNC(=N)N)NC(=O)[C@H](CCC(N)=O)NC(=O)[C@H](CC(C)C)NC(=O)[C@H](CCC(=O)O)NC(=O)CNC(=O)[C@H](Cc1ccc(O)cc1)NC(=O)[C@@H](NC(=O)[C@H](Cc1ccccc1)NC(=O)[C@@H](NC(=O)[C@@H]1CCCN1C(=O)[C@@H](NC(=O)[C@@H](N)Cc1ccccc1)C(C)C)[C@@H](C)CC)[C@@H](C)O)C(C)C)C(=O)N[C@H](C(=O)N[C@H](C(=O)N[C@@H](CCCNC(=N)N)C(=O)O)[C@@H](C)CC)[C@@H](C)O` [Chimeric motilin (X)(MG-S)] (H-FVPIFTYGELQRVQQRKESKKPPMITIR-OH; N-terminus and C-terminus assumed), 5.25 min. For `CC[C@H](C)[C@H](NC(=O)[C@@H]1CCCN1C(=O)[C@@H](NC(=O)[C@@H](N)Cc1ccccc1)C(C)C)C(=O)N[C@@H](Cc1ccccc1)C(=O)N[C@H](C(=O)N[C@@H](Cc1ccc(O)cc1)C(=O)NCC(=O)N[C@@H](CCC(=O)O)C(=O)N[C@@H](CC(C)C)C(=O)N[C@@H](CCC(N)=O)C(=O)N[C@@H](CCCNC(=N)N)C(=O)N[C@@H](CCCCN)C(=O)N[C@@H](CCC(=O)O)C(=O)N[C@@H](CO)C(=O)N[C@@H](CCCCN)C(=O)N[C@@H](CCCCN)C(=O)N1CCC[C@H]1C(=O)N1CCC[C@H]1C(=O)N[C@@H](C)C(=O)N[C@@H](CCCCN)C(=O)N[C@@H](CC(C)C)C(=O)N[C@@H](C)C(=O)N[C@@H](C)C(=O)N[C@@H](CC(C)C)C(=O)N[C@@H](CCCCN)C(=O)N[C@@H](C)C(=O)O)[C@@H](C)O` [Chimeric motilin (XI) (MG-d12/14)] (H-FVPIFTYGELQRKESKKPPAKLAALKA-OH; N-terminus and C-terminus assumed), the half-life worked out at 10.3 min. On the same count and under the same terms, the value for `CC[C@H](C)[C@H](NC(=O)[C@@H]1CCCN1C(=O)[C@@H](NC(=O)[C@@H](N)Cc1ccccc1)C(C)C)C(=O)N[C@@H](Cc1ccccc1)C(=O)N[C@H](C(=O)N[C@@H](Cc1ccc(O)cc1)C(=O)NCC(=O)N[C@@H](CCC(=O)O)C(=O)N[C@@H](CC(C)C)C(=O)N[C@@H](CCC(N)=O)C(=O)N[C@@H](CCCNC(=N)N)C(=O)N[C@H](C(=O)N[C@@H](CCC(N)=O)C(=O)N[C@@H](CCC(N)=O)C(=O)N[C@@H](CCCCN)C(=O)N[C@@H](CCCCN)C(=O)N[C@@H](C)C(=O)N[C@@H](Cc1ccc(O)cc1)C(=O)N[C@@H](CO)C(=O)N1CCC[C@H]1C(=O)N[C@@H](CC(=O)O)C(=O)N[C@@H](CCCCN)C(=O)N[C@@H](CCC(=O)O)C(=O)N[C@@H](CCCNC(=N)N)C(=O)N[C@@H](CCCCN)C(=O)N1CCC[C@H]1C(=O)N1CCC[C@H]1C(=O)N[C@@H](C)C(=O)N[C@@H](CC(C)C)C(=O)N[C@@H](CCC(N)=O)C(=O)N1CCC[C@H]1C(=O)N[C@@H](CCCNC(=N)N)C(=O)O)C(C)C)[C@@H](C)O` [Chimeric motilin (XII)(MGP1)] (H-FVPIFTYGELQRVQQKKAYSPDKERKPPALQPR-OH; N-terminus and C-terminus assumed) was 13 min.

These data come from patent US8551937B2, “Peptide having an extending action for half-life of object peptide in plasma” (priority 2008, dated 2013).
